Data: patent US10233184B2, “7-substituted sulfonimidoylpurinone compounds and derivatives for the treatment and prophylaxis of virus infection” (Hoffmann-La Roche Inc., priority 2016, dated 2019)
Where two headings read alike, the source gives them in different places.

Assays:
[1] = Portal vein study: oral PK in PVC/CAC dual cannulated rat; format: in vivo; settings: prodrug 10 mg/kg oral, analyte prodrug
Method: Surgery was performed under pentobarbital/isoflurane anesthesia. Briefly, after disinfecting the abdominal area with betadine and 70% isopropyl alcohol, a small abdominal mid-line incision was made. The cecum was pulled out and mesenteric vein was identified and isolated for about 5 mm vessel. A loose ligature was placed proximally and distal end of the vein was ligated. Make a small incision (just enough to allow the insertion of the catheter) on isolated vein and insert the PU catheter towards liver for appropriate length. The catheter was secured in place by tying the loose ligature around the cannulated vessel. The cecum was replaced into abdominal cavity. A hole was made in the right abdominal wall to make the end of catheter pass freely. The catheter was secured by suture on the abdominal wall. The abdominal muscle incision was closed with suture. A small incision was made in the scapular area to serve as the exit site of the catheter. The catheter was subcutaneously tunneled and exteriorized through the scapular incision. A fixed suture was placed in the scapular region. The patency of the catheter was checked and then exteriorized from the subcutaneous space to the dorsal neck region. After gently wiping the area, the abdominal cavity was sutured. The left carotid artery was then cannulated by inserting a PESO catheter. Both the exteriorized catheters were tied firmly on the dorsal neck region and fixed. The animals was then allowed to recover in its cage and used for study at least 3 days after surgery. All catheters were flushed once daily with heparinized saline to maintain patency. Animals were fasted overnight (n=3) and administered vial oral gavage (10 mg/kg, 10 mL/kg). Blood samples (60 μL) were collected simultaneously from the portal and carotid artery catheters at 0.083, 0.25, 0.5, 1, 2, 4, 7, 24 h. All blood samples will be transferred into microcentrifuge tubes containing 2 μL of K2EDTA (0.5M) as anti-coagulant and placed on wet ice. Then blood samples will be processed for plasma by centrifugation at approximately 4° C., 3000 g within half an hour of collection. Plasma samples will be stored in polypropylene tubes, quick frozen over dry ice and kept at −70±10° C. until LC/MS/MS analysis. Pharmacokinetic parameters (mean±SD, n=3) of prodrugs and active forms in portal and carotid samples following oral administration of prodrugs (10 mg/kg) in portal vein cannulated rat were detected and analyzed.

human TLR7 = molecular target: T1, human TLR7 (Homo sapiens, UniProt Q9NYK1); test: HEK293-Blue-hTLR-7 cells assay (SEAP reporter); format: cell-based; settings: for Ratio (EC50(prodrug)/EC50(active form)): EC50 of prodrug over EC50 of corresponding active form; for EC50: HEK293-Blue-hTLR-7 cells, SEAP reporter, 20 hrs, prodrug, read-out: HEK293-hTLR-7 EC50 (Prodrug)
T1 sequence (Q9NYK1 27-1049): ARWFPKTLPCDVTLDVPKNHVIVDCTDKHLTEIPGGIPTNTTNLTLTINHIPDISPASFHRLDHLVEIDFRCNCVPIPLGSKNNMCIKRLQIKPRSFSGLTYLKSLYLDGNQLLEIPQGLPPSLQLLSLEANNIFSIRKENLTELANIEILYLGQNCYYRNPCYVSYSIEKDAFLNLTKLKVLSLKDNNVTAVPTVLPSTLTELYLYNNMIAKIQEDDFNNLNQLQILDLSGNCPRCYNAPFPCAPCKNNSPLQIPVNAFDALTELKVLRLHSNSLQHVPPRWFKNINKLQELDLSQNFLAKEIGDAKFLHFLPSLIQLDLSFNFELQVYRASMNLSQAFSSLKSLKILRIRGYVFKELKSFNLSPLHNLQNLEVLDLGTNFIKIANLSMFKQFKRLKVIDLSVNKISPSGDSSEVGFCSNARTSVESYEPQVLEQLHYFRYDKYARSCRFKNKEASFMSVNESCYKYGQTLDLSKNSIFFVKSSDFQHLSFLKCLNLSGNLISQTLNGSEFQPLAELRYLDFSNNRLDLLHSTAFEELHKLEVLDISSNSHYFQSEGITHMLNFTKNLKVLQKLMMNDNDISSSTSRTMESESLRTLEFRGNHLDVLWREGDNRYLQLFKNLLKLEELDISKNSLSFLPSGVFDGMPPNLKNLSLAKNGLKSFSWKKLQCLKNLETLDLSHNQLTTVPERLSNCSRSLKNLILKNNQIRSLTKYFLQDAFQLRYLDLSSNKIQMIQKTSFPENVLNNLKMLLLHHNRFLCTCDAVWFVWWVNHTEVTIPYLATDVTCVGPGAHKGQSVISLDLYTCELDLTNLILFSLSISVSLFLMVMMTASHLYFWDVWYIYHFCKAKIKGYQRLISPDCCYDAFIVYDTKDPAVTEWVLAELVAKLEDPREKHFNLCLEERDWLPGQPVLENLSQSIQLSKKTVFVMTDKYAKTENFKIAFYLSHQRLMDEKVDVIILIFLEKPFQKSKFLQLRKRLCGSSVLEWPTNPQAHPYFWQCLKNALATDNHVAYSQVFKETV
Procedure, shortened: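 HEK293-Blue-hTLR7 cells with NF-κB/AP-1-driven SEAP reporter exposed to serially diluted compound (1% DMSO) for 20 hrs at 37° C. Supernatant SEAP measured with QUANTI-Blue after 2 hrs at 37° C, absorbance 620~655 nm; agonism expressed as EC50.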

[2] = carotid artery plasma, read-out: AUC0-2 (nM · h), prodrug, Carotid sampling
[3] = carotid artery plasma, read-out: Cmax (nM), prodrug, Carotid sampling
[4] = carotid artery plasma, read-out: Tmax (h), prodrug, Carotid sampling
[5] = portal vein plasma, read-out: AUC0-2 (nM · h), prodrug, Portal sampling
[6] = portal vein plasma, read-out: Cmax (nM), prodrug, Portal sampling
[7] = portal vein plasma, read-out: Tmax (h), prodrug, Portal sampling

SMILES	AUC(0-t) [1, 2] [µM·h]	Cmax [1, 3] [nM]	Tmax [1, 4] [h]	AUC(0-t) [1, 5] [µM·h]	Cmax [1, 6] [nM]	Tmax [1, 7] [h]	Ratio (EC50(prodrug)/EC50(active form)) (human TLR7)	EC50 (human TLR7) [µM]
CCCN(C)C(=O)n1c(=O)n(Cc2ccc(Cl)cc2)c2nc([S@](=N)(=O)CC)nc(N)c21 [Example 41-A, 6-Amino-9-[(4-chlorophenyl)methyl]-2-[S(R)-ethylsulfonimidoyl]-N-methyl-8-oxo-N-propyl-purine-7-carboxamide]	0.114	210	0.19	2.19	9700	0.14	518.8	44.1
CCCN(C)C(=O)n1c(=O)n(Cc2ccc(Cl)cc2)c2nc([S@@](=N)(=O)CC)nc(N)c21 [Example 41-B, 6-Amino-9-[(4-chlorophenyl)methyl]-2-[S(S)-ethylsulfonimidoyl]-N-methyl-8-oxo-N-propyl-purine-7-carboxamide]	0.0225	29.6	0.25	1.44	7070	0.19	452.1	32.1
CCN(C)C(=O)n1c(=O)n(Cc2ccc(Cl)cc2)c2nc([S@@](=N)(=O)CC)nc(N)c21 [Example 42-A, 6-Amino-9-[(4-chlorophenyl)methyl]-N-ethyl-2[S(S)-ethylsulfonimidoyl]-N-methyl-8-oxo-purine-7-carboxamide]	0.286	286	0.22	3.46	8920	0.19	570.4	40.5
CCCN(C)C(=O)n1c(=O)n(Cc2ccc(C)cc2)c2nc([S@](=N)(=O)CC)nc(N)c21 [Example 43-A, 6-Amino-2-[S(R)-ethylsulfonimidoyl]-N-methyl-8-oxo-N-propyl-9-(p-tolylmethyl)purine-7-carboxamide]	0.124	191	0.22	2.07	4110	0.28	1000	110
